Measured values from publication PMC6315005, “5F-Cumyl-PINACA in ‘e-liquids’ for electronic cigarettes: comprehensive characterization of a new type of synthetic cannabinoid in a trendy product including investigations on the in vitro and in vivo phase I metabolism of 5F-Cumyl-PINACA and its non-fluorinated analog Cumyl-PINACA” (Forensic Toxicology, 2018).
Entries after “also recorded” stand apart in the source; their conditions may differ.

Columns and labels:
CB1 receptor = test system: CB1 receptor; parameters: method as in PMID 29367862; conditions: [35S]GTPγS binding; cited from earlier work
CB2 receptor = test system: CB2 receptor; parameters: method as in PMID 29367862; conditions: [35S]GTPγS binding; cited from earlier work
CB1 receptors = test system: CB1 receptors; parameters: method as in PMID 28792725; conditions: mouse AtT-20 neuroblastoma cells, membrane potential; cited from earlier work
[1] = Self-administration study, serum concentrations of Cumyl-PINACA (LC-MS/MS); format: in vivo, human; conditions: 0.6 mg oral, one volunteer
From the text: For analysis of the serum samples, a routinely used LC–MS/MS screening method, currently covering 94 compounds with at least two ion transitions for each analyte and one ion transition for each internal standard in positive scheduled multiple reaction monitoring (+sMRM) was applied. Briefly, a QTRAP™ 4000 triple quadrupole linear ion trap instrument (Sciex, Darmstadt, Germany) equipped with a TurbolonSpray® interface and coupled to a Shimadzu Prominence HPLC system consisting of two LC-20 AD SP isocratic pumps, SIL 20 AC autosampler, CTO-20A controller (Shimadzu, Duisburg, Germany) and Analyst® software version 1.6.2 were used (Sciex). […] The total flow rate was 0.5 mL/min. The autosampler and the column oven temperatures were set to 10 and 40 °C, respectively. The monitored ion transitions used for Cumyl-PINACA were m/z 350→215 and 350→232.
To investigate the in vivo phase I metabolism of Cumyl-PINACA, one of the authors (75 kg person) ingested 0.6 mg Cumyl-PINACA orally. In addition to blank samples taken prior to ingestion, serum and urine samples were collected repeatedly over periods of 17 and 31 h after ingestion, respectively. All samples were stored at − 20 °C until analysis. In Germany, approval by an ethics committee is not required for scientific self-experiments.
A 1-mL aliquot of a serum sample was spiked with 10 µL of an internal standard solution mixture (25 ng/mL each, ADBICA-d9, AKB48-d9, JWH-007-d9, JWH-015-d7, JWH-018-d11, JWH-073-d9, JWH-081-d9, JWH-122-d9, JWH-200-d5, JWH-210-d9, JWH-250-d5, JWH-398-d9, MAM-2201-d5, PB-22-d9, RCS-4-d9, UR-144-d5, XLR-11-d5). A 0.5-mL volume carbonate buffer (pH 10) and 1.5 mL of extraction mixture 1 (n-hexane/ ethyl acetate, 99:1, v/v) were added. After gentle mixing for 5 min, the sample was centrifuged and 1 mL of the supernatant was transferred to an HPLC vial. Subsequently, 1.5 mL of extraction mixture 2 (n-hexane/ethyl acetate, 80:20, v/v) was added to the residue, and the mixing and centrifugation steps were repeated. A 1-mL volume of the supernatant was added to the same HPLC vial, and after evaporation under a gentle stream of nitrogen at 40 °C and reconstitution in 100 µL of mobile phase (A/B, 80:20, v/v), the sample was analyzed using LC–MS/MS.

[2] = Self-administration study, phase I metabolites of Cumyl-PINACA in urine (LC-MS/MS); format: in vivo, human; conditions: 0.6 mg Cumyl-PINACA oral
CB2 receptors = test system: CB2 receptors; parameters: method as in PMID 28792725; conditions: mouse AtT-20 neuroblastoma cells, membrane potential; cited from earlier work
CB1 = biological target: T1, CB1 (Homo sapiens, UniProt P21554); test: cAMP biosensor assay with CB1 as target (DiscoveRx); format: cell-based
T1 construct: purchased DiscoveRx (Fremont, CA, USA)
Experimental: Each compound was tested in duplicates; to induce response, 20 µM forskolin was used.

T1 sequence (P21554 whole entry): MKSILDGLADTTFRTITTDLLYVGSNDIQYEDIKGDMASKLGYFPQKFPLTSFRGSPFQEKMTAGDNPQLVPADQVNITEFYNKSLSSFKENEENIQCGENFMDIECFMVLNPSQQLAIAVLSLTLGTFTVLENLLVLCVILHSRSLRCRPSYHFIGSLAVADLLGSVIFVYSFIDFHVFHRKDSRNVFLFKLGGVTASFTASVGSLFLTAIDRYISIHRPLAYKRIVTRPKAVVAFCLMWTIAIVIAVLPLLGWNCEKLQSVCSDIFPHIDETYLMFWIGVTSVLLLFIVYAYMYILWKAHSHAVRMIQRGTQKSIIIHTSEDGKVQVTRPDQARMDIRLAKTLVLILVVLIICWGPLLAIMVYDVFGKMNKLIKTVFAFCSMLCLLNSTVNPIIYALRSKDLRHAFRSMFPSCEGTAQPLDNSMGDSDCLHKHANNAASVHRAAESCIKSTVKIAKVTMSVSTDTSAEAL

CCCCCn1nc(C(=O)NC(C)(C)c2ccccc2)c2ccccc21 [Cumyl-PINACA, 1-pentyl-N-(2-phenylpropan-2-yl)-1H-indazole-3-carboxamide]
CB1 activity compared to CP-55,940 (CB1 receptor): less activities as compared to CP-55,940
CB2 activity compared to CP-55,940 (CB2 receptor): less activities as compared to CP-55,940
potency of CB1 receptor activation compared to CP-55,940 (CB1 receptors): greater potency than CP-55,940
drug-related symptoms [1]: did not experience any drug-related symptoms
maximum concentration measured in serum [1]: 0.1 ng/mL
period of detection in serum [1]: about 17 h
Tmax ([1]; human, serum, read-out: time of maximum serum concentration after ingestion): 6 h
detection of parent compound in urine [2]: not detected in urine
potency of CB2 receptor activation compared to CP-55,940 (CB2 receptors): greater potency than CP-55,940
EC50 (CB1): 0.06 nM
relative potency among the tested substances (CB1): most potent SC among the tested compounds; also recorded: most potent substance in this assay
Curve top (CB1; agonist format, 20 µM forskolin): 93.7
Emax (CB1; control ligand CP-55,940, read-out: Maximum response (compared to CP-55,940)): 92.9%
